Test [1] deals with Escherichia coli. Put plainly: antibiogram by diffusion on Mueller-Hinton agar with antibiotic wafers. In kind it is cell-based. As to conditions: Table C2, square dish. The protocol: (§1) The inoculum was prepared by making a suspension of bacteria directly from colonies put into solution in tubes of sterile water so that the solution presented accurate opacity as determined with a spectrophotometer equivalent to the opacity of a 0.5 standard in the McFarland range. This bacterial suspension concentration is standardized since a more concentrated inoculum would lead to smaller diameters for the inhibition zone, and vice versa.
(§2) The inoculum corresponds to concentrations of about 10^8 CFU/mL for Escherichia coli, Klebsiella pneumoniae, Proteus mirabilis, Klebsiella oxytoca, Enterobacter cloacea, Enterobacter aerogenes, Entercoccus faecalis, Pseudomonas aeruginosa, Staphylococcus aureus, and Staphylococcus epidermidis. These are the ten species bacteria that are encountered the most frequently in human pathologies.
(§3) 1.2) The bacterial sample was deposited on a solid culture medium in a petri dish having a diameter of 90 mm or in a square dish having a side of 120 mm, the medium being constituted by a Mueller-Hinton agar specific for (EUCAST) antibiograms. Ideally, it should be used in the 15 minutes (min) following preparation of the suspension.
(§4) Seeding was done by the method of diffusion on an agar medium by flooding in which excess bacterial suspension was added to the Mueller-Hinton agar. After homogenizing, excess liquid was discarded in order to avoid over-inoculating the dishes. It is necessary to wait beforehand for the surface of the agar to be dry in order to eliminate any trace of moisture encouraging bacterial invasion.
(§5) The disks of the antibiotic wafers were deposited within 15 min after inoculating the agar. The antibiotic impregnated disks were deposited using an automatic dispenser that placed the disks firmly on the surface of the inoculated and dried agar. The number of disks deposited per dish was limited because of inhibition zone overlap and in order to limit interference between antibiotics. It is important for the inhibition diameters to be measurable. The antibiograms were then incubated at 37° C. for 18 hours (h) to 24 h.
(§6) The antibiotic wafers were made of high quality absorbent paper with a diameter of 6 mm and they were impregnated with antibiotics at concentrations in the range 1 micrograms (μg) to 300 μg approximately, depending on the antibiotic.
(§7) In the examples below, reference disks were used as sold by the suppliers i2a (Montpellier, France), BD (Becton Dickinson, USA), Bio-Rad (Hercules, USA), Biomerieux (Marcy l′Etoile, France) containing the following antibiotics and carrying the following codes and the following doses: AMX (amoxicillin) 25 μg: AMC (amoxicillin-clavulanic acid) 20 μg-10 μg; GM for gentamicin, 15 μg; SXT (trimethoprim-sulfamethoxazole) 1.25/23.75 μg; TIC (ticarcillin) 75 μg; TCC (ticarcillin-clavulanic acid) […]; TZP (piperacillin-tazobactam) 75/10 μg; CAZ (ceftazidime) 30 μg; IMP or IPM (imipeneme) 10 μg; COL (colistin) 50 μg; FOX (cefoxitine) 30 μg; VAN (vancomycin) 30 μg; TEC (teicoplanin) 30 μg; CLI or DA (clindamycin) 2 μg; CRO (ceftriaxone) 30 μg; CIP (ciprofloxacin) 5 μg; OFX (ofloxacin) 5 μg; CTX (cefotaxime) 5 μg; AN or AK (amikacin) 30 μg; TM (tobramycin) 10 μg; FOX (cefoxitine) 30 μg; ATM (aztreonam) 30 μg; ERT (ertapenem) 10 μg; FF (fosfomycin) 200 μg; DO (doxycycline) 30 μg; K (kanamycin) 1000 μg; L (lincomycin) 15 μs; LNZ (linezolid) 10 μg; AN (nalidixic acid) 30 μg; NOR (norfloxacin) 10 μg; PT (pristinamycin) 15 μg; RA (rifampicin) 5 μg; and E (erythromycin) 15 μg.

Test [2] relates to Klebsiella pneumoniae. Described as above. To be noted: Table C2, sixteen wafers, square dish. The format is cell-based. The protocol: as §1, §2, §3, §4, §5, §6, §7
Test [3] has as its system Pseudomonas aeruginosa. The test is described as above. In kind it is cell-based. As to conditions: Table C1, six wafers, disk loads of Table B. The protocol:
as §1, §2, §3, §4, §5, §6, §7

Test [4] relates to Staphylococcus aureus. The description is as above. As to conditions: Table C2, sixteen wafers, square dish. The format is cell-based. The protocol:
as §1, §2, §3, §4, §5, §6, §7

Test [5] deals with Escherichia coli. To be noted: cited from earlier work; for Critical diameters (mm) R> / Critical diameters (mm) S≤: disk load 10 μg, inhibition zone diameter; for Critical diameters (mm) R> / Critical concentrations (mg/L) R>: resistant; for Critical diameters (mm) S≤ / Critical concentrations (mg/L) S≤: sensitive; for Critical concentrations (mg/L) R>: high critical concentration; for Critical concentrations (mg/L) S≤: low critical concentration.

Setting [6] is: E. coli phenotype Cephalosporinase + R to fluoroquinolones + R to cotrimoxazole + partial R to aminosides, sixteen wafers.
[7] abbreviates: E. coli phenotype Hl penicillinase + R to fluoroquinolones + R to cotrimoxazole + partial R to aminosides, sixteen wafers.
Setting [8] is: E. coli phenotype Wild, sixteen wafers in a rectangular grid.
[9] abbreviates: K. pneumoniae phenotype Cephalosporinase + R to aminosides + R to cotrimoxazole.
[10] abbreviates: P. aeruginosa Abnormal phenotype.
The mark [11] stands for this setting: P. aeruginosa phenotype Carbapenemase.
Setting [12] is: P. aeruginosa phenotype Penicillinase.
Setting [13] is: P. aeruginosa phenotype Selective imipenem permeability.
The mark [14] stands for this setting: S. aureus phenotype R to methicilline, R to aminosides, fluoroquinolones, to rifampicie, to macrolides and the like.

This is an account of results in patent publication US10837044B2, “Automated method for analyzing and interpreting an antimicrobial susceptibility” (FONDATION MEDITERRANEE INFECTION, priority 2014, dated 2020).

In the case of `NCC[C@H](O)C(=O)N[C@@H]1C[C@H](N)[C@@H](O[C@H]2O[C@H](CN)[C@@H](O)[C@H](O)[C@H]2O)[C@H](O)[C@H]1O[C@H]1O[C@H](CO)[C@@H](O)[C@H](N)[C@H]1O` [AK, amikacin], the “resistant (I/R) or sensitive (S)” value is “S” in test [1] (setting [6]); “S” in test [1] (setting [7]); “S” in test [1] (setting [8]); “S” in test [2] (setting [9]); “R” in test [2] (K. pneumoniae phenotype Wild).
For `C[C@H]1[C@H](NC(=O)/C(=N\OC(C)(C)C(=O)O)c2csc(N)n2)C(=O)N1S(=O)(=O)O` [ATM, aztreonam], the “resistant (I/R) or sensitive (S)” value in test [1] (setting [6]) is recorded as “R”; in test [1] (setting [7]), “S”; in test [1] (setting [8]), “S”; in test [2] (setting [9]), “R”; in test [2] (K. pneumoniae phenotype Wild) it was “R”.
Consider `CC(C)(O/N=C(\C(=O)N[C@@H]1C(=O)N2C(C(=O)[O-])=C(C[n+]3ccccc3)CS[C@H]12)c1csc(N)n1)C(=O)O` [CAZ, ceftazidime], for which the “resistance (I, R) or sensitivity (S)” value in test [3] (setting [10]) is recorded as “S”; in test [3] (P. aeruginosa phenotype BSBL) it was “R”; in test [3] (setting [11]), “R”; in test [3] (setting [12]) it was “S”; in test [3] (setting [13]), “S”; in test [3] (P. aeruginosa phenotype Wild), “S”.
For the compound `O=C(O)c1cn(C2CC2)c2cc(N3CCNCC3)c(F)cc2c1=O` [CIP, ciprofloxacin], the “resistant (I/R) or sensitive (S)” value is “R” in test [1] (setting [6]); “R” in test [1] (setting [7]); “S” in test [1] (setting [8]); “R” in test [4] (setting [14]); “S” in test [4] (S. aureus phenotype Wild); “R” in test [2] (setting [9]). The “resistant (I/R) or sensitive (S)” value in test [2] (K. pneumoniae phenotype Wild) is given as “S”.
With `CO/N=C(\C(=O)N[C@@H]1C(=O)N2C(C(=O)O)=C(COC(C)=O)CS[C@H]12)c1csc(N)n1` [CTX, cefotaxime], the “resistant (I/R) or sensitive (S)” value is “R” in test [1] (setting [6]); “S” in test [1] (setting [7]); “S” in test [1] (setting [8]); “R” in test [2] (setting [9]); “R” in test [2] (K. pneumoniae phenotype Wild).
With `C[C@H]1c2cccc(O)c2C(=O)C2=C(O)[C@]3(O)C(=O)C(C(N)=O)=C(O)[C@@H](N(C)C)[C@@H]3[C@@H](O)[C@@H]21` [DO, doxycycline], the “resistant (I/R) or sensitive (S)” value in test [4] (setting [14]) is recorded as “R”; in test [4] (S. aureus phenotype Wild) it was “S”.
As for `C[C@@H](O)[C@H]1C(=O)N2C(C(=O)O)=C(S[C@@H]3CN[C@H](CNS(N)(=O)=O)C3)[C@H](C)[C@H]12` [Doripenem], in test [5], the “Critical diameters (mm) R>” value is listed as 21 mm, the “Critical diameters (mm) S≤” value is on record as 24 mm, the “Critical concentrations (mg/L) R>” value is given as 2 mg/L and the “Critical concentrations (mg/L) S≤” value was 1 mg/L.
`CC[C@H]1OC(=O)[C@H](C)[C@@H](O[C@H]2C[C@@](C)(OC)[C@@H](O)[C@H](C)O2)[C@H](C)[C@@H](O[C@@H]2O[C@H](C)C[C@H](N(C)C)[C@H]2O)[C@](C)(O)C[C@@H](C)C(=O)[C@H](C)[C@@H](O)[C@]1(C)O` [E, erythromycin]: the “resistant (I/R) or sensitive (S)” value in test [4] (setting [14]) is given as “R”; in test [4] (S. aureus phenotype Wild) it was “S”.
In the case of `C[C@@H](O)[C@H]1C(=O)N2C(C(=O)O)=C(S[C@@H]3CN[C@H](C(=O)Nc4cccc(C(=O)O)c4)C3)[C@H](C)[C@H]12` [Ertapenem], in test [5], the “Critical diameters (mm) R>” value is 22 mm, the “Critical diameters (mm) S≤” value is listed as 25 mm, the “Critical concentrations (mg/L) R>” value was 1 mg/L and the “Critical concentrations (mg/L) S≤” value was 0.5 mg/L.
Take `C[C@@H]1O[C@@H]1P(=O)(O)O` [FF, fosfomycin]: the figures for the “resistant (I/R) or sensitive (S)” value in test [4] (setting [14]) and in test [4] (S. aureus phenotype Wild) were “R” and “S”, respectively.
In the case of `CC(=O)NC[C@H]1CN(c2ccc(N3CCOCC3)c(F)c2)C(=O)O1` [LNZ, linezolid], the “resistant (I/R) or sensitive (S)” value in test [4] (setting [14]) and in test [4] (S. aureus phenotype Wild) was “S” each time.
Take `C[C@@H](O)[C@H]1C(=O)N2C(C(=O)O)=C(S[C@@H]3CN[C@H](C(=O)N(C)C)C3)[C@H](C)[C@H]12` [Meopenem]: in test [5], the “Critical diameters (mm) R>” value is reported as 16 mm, the “Critical diameters (mm) S≤” value is given as 22 mm, the “Critical concentrations (mg/L) R>” value is on record as 8 mg/L and the “Critical concentrations (mg/L) S≤” value is 2 mg/L.
Consider `CC1COc2c(N3CCN(C)CC3)c(F)cc3c(=O)c(C(=O)O)cn1c23` (centres unmarked) [OFX, ofloxacin], for which the “resistant (I/R) or sensitive (S)” value in test [1] (setting [6]) is recorded as “R”; in test [1] (setting [7]), “R”; in test [1] (setting [8]) it was “S”; in test [2] (setting [9]), “R”; in test [2] (K. pneumoniae phenotype Wild), “S”.
Regarding `Cc1onc(-c2ccccc2)c1C(=O)N[C@@H]1C(=O)N2[C@@H]1SC(C)(C)[C@@H]2C(=O)O` [OXA, oxacillin], the “resistant (I/R) or sensitive (S)” value in test [4] (setting [14]) is recorded as “R”; in test [4] (S. aureus phenotype Wild), “S”.
Regarding `CO[C@H]1/C=C/O[C@@]2(C)Oc3c(C)c(O)c4c(O)c(c(/C=N/N5CCN(C)CC5)c(O)c4c3C2=O)NC(=O)/C(C)=C\C=C\[C@H](C)[C@H](O)[C@@H](C)[C@@H](O)[C@@H](C)[C@H](OC(C)=O)[C@@H]1C` [RA, rifampicin], the “resistant (I/R) or sensitive (S)” value is “R” in test [4] (setting [14]) and “S” in test [4] (S. aureus phenotype Wild).
`CC1(C)S[C@@H]2[C@H](NC(=O)[C@H](C(=O)O)c3ccsc3)C(=O)N2[C@H]1C(=O)O` [TIC, ticarcillin]: the “resistant (I/R) or sensitive (S)” value in test [1] (setting [6]) is listed as “R”; in test [1] (setting [7]) it was “R”; in test [1] (setting [8]), “S”; in test [2] (setting [9]), “R”; in test [2] (K. pneumoniae phenotype Wild) it was “R”. The “resistance (I, R) or sensitivity (S)” value was “R” in test [3] (setting [10]); “I/R” in test [3] (P. aeruginosa phenotype BSBL); “R” in test [3] (setting [11]); “R” in test [3] (setting [12]); “S” in test [3] (setting [13]); “S” in test [3] (P. aeruginosa phenotype Wild).
`NC[C@H]1O[C@H](O[C@H]2[C@H](O)[C@@H](O[C@H]3O[C@H](CO)[C@@H](O)[C@H](N)[C@H]3O)[C@H](N)C[C@@H]2N)[C@H](N)C[C@@H]1O` [TOB, tobramycin]: the “resistant (I/R) or sensitive (S)” value is reported as “R” in test [1] (setting [6]); “R” in test [1] (setting [7]); “S” in test [1] (setting [8]); “R” in test [4] (setting [14]); “S” in test [4] (S. aureus phenotype Wild); “R” in test [2] (setting [9]). Besides, the “resistant (I/R) or sensitive (S)” value in test [2] (K. pneumoniae phenotype Wild) was “R”.
As to pristinamycin [PT], the “resistant (I/R) or sensitive (S)” value in test [4] (setting [14]) is listed as “R”; in test [4] (S. aureus phenotype Wild), “S”.
